From patent US20200339544A1 (JOINT STOCK COMPANY "BIOCAD", priority 2017, published 2020)
Like-named read-outs stand apart in the source and are kept apart here.

Key:
[1] = Chemical stability in human blood plasma; assay type: in vitro ADME; details: pooled human blood plasma; 10 μm; 4 hours at 37° C.; substance amount remaining
Procedure: 2) Determination of chemical stability in human blood plasma.
Determination of stability in human blood plasma was performed using pooled human blood plasma taken from ten healthy donors. The initial candidate solution (10 mM in DMSO) was diluted with pooled blood plasma to a concentration of 10 μm (test solution). The test solution was incubated in a dry block thermostat for 4 hours at 37° C. HPLC with Agilent 1200 liquid chromatography system (Agilent, USA) was employed to determine peak areas of the compounds in test samples, said peak areas corresponding to the initial test time (prior to incubation) and the final test time (after incubation in a dry block thermostat for 4 hours at 37° C.), proteins were preliminarily precipitated with acetonitrile. We used gradient elution (1 mL/min flow rate). Substance amount in % in a sample after thermostatting was determined.
The stability of the compounds was estimated.

[2] = Enzyme stability in human liver S9 fractions; assay type: in vitro ADME; details: 0.5 mg/mL pooled human liver S9 fractions; 10 μM compound; 37° C.; pH 7.4; read-out: Stability in liver S9 fractions, Clint
Procedure: Determination of enzyme stability.
Measuring of candidate enzyme stability enabled estimation of the stability of the compounds towards the action of liver enzymes.
Enzyme degradation rate was measured by incubating the reaction mixture in a dry block thermostat at 37° C., said reaction mixture comprising 0.5 mg/mL of pooled human liver S9 fractions (XenoTech, USA, cat # H0610), 10 μM compound, 2 mM β-nicotinamide adenine dinucleotide (Carbosynth, UK, cat # NN10871) and 4 mM magnesium chloride in 0.1 M sodium-phosphate buffer, pH=7.4. The reaction was quenched with acetonitrile (100 μL of acetonitrile/100 μL of the reaction mixture). After quenching, the samples were centrifuged at 10000 rpm for 10 minutes. Supernatant fluid was tested by chromatographic technique using Agilent1200 (Agilent, USA). We used gradient elution (1 mL/min flow rate). A graph of the logarithm of substance's peak area as a function of time was made. The dependent factor of the line corresponded to the elimination rate constant K based on which the drug's half-life T½ and intrinsic clearance CLint were calculated:
Based on the data obtained, candidate enzyme stability in human liver S9 fractions was determined (see Table 11).

WT EGFR (Wild-Type EGFR) = molecular target: T1, WT EGFR (Wild-Type EGFR) (Homo sapiens, UniProt P00533); assay: Inhibition of WT EGFR kinase activity (ADP-Glo); assay type: biochemical
T1 construct: purchased SignalChem
Procedure: (§1) To assess IC50 values of the compounds disclosed herein, a biochemical assay of inhibition of kinase activity in a non-cellular system and a functional cellular anti-proliferation assay were used.
(§2) To assess inhibition of WT EGFR (Wild-Type EGFR), DM EGFR (DoubleMutantEGFR, L828R/T790M) kinase activity, SignalChem kinase system and ADP-Glo™ Kinase Assay (V9102, Promega) detection kit were used.
(§3) The measurements were carried out in a 25 μL reaction volume using a 96-well plate. […] The solution of 0.5 mg/mL peptide substrate and 50 μM ATP in the same buffer were added; the solution was incubated for 180 minutes at 37° C. To detect the amount of ATP taken up during the kinase reaction, the ADP Glo Detection Kit (V9102, Promega) was used. The luminescence was measured with the Infinite M200Pro plate spectrophotometer (Tecan, Switzerland). IC50 values were calculated using Magellan 7.2 software (Tecan, Switzerland) approximating experimental points by four-parameter logistic model with the optimization by Levenberg-Marquardt (Table 14).

[3] = molecular target: T2, DM EGFR (DoubleMutantEGFR, L828R/T790M) (Homo sapiens, UniProt P00533, L858R/T790M); assay: Inhibition of DM EGFR kinase activity (ADP-Glo); assay type: biochemical; details: for IC50: inhibition of kinase activity, EGFR DM (L828R/T790M); for SI, IC50(WT)/IC50(DM): selectivity index, kinase EGFR WT vs EGFR DM
T2 construct: purchased SignalChem
Procedure: as §1, §2, §3

[4] = tested on: A549 (lung adenocarcinoma, WT); assay: Antiproliferative activity on A549 cells (Alamar Blue); assay type: cell-based; details: Homo sapiens, antiproliferative test
Procedure: (§4) Antiproliferative activity of EGFR inhibitors (Tables 15 and 16) was measured in cell-based bioassay on continuous epithelial cell cultures: A549 (lung adenocarcinoma, ATCC® CRM-CCL-185™—WT), HCC827 (lung adenocarcinoma, ATCC® CRL-2868™—SM (SingleMutantEGFR, exon19delE746-A750)) and H1975 (lung adenocarcinoma, ATCC® CRL-5908™—DM (DoubleMutantEGFR, L828R/T790M)) using cell viability reagent Alamar Blue (ThermoFisher, # DAL1100). Cells were cultured in 10% FBS-supplemented (Gibco, #16140071) RPMI-1640 (PanEco, S330p) for at least 1 passage after thawing, washed with PBS and passaged in 96-well culture plates (3599, Corning) with RPMI-1640 growth medium supplemented with 2% FBS in an amount of 5*10^3 cells/well for A549, 10*10^3 cells/well for HCC827 and 15*10^3 cells/well for H1975 in 100 μL, and incubated at 37° C. in an incubator (Thermo Forma, USA) under 5% of CO2 for 16-18 h for cell attachment.
(§5) The test compounds were dissolved in DMSO in the selected range of concentrations and transferred to RPMI-1640 medium (PanEco, S330p) supplemented with 2% FBS. After adding 50 μl of the prepared dilutions to the cells, the incubation mixture contained the final concentrations of the test substances and no more than 1% DMSO. The plates were Incubated at 37° C. for 72 h. After incubation, 15 μl of Alamar Blue vital dye (ThermoFisher, # DAL1100) was added to each well. The plates were shaken on an orbital shaker (Biosan, Latvia) and further incubated for 3-5 h in a CO2 incubator (Thermo Forma, USA). Number of living cells was estimated using a plate spectrophotometer Infinite M200Pro, (Tecan, Switzerland) measuring fluorescent signal at the excitation wavelength (λEx) of 540 nm and emission wavelength (λEm) of 590 nm.
IC50 was calculated using Magellan 7.2 software (Tecan, Switzerland) approximating experimental points by four-parameter logistic model with the optimization by Levenberg-Marquardt.
(§6) The ratio between IC50 for cell lines containing wild-type EGFR (A549) and IC50 for cell lines containing target mutation L828R/T790M (H1975) is the selectivity index (SI): […]

[5] = tested on: H1975 (lung adenocarcinoma, DM, L828R/T790M); assay: Antiproliferative activity on H1975 cells (Alamar Blue); assay type: cell-based; details: for IC50: Homo sapiens, NCI-H1975, H1975 cells; for SI IC50(A549)/IC50(DM): selectivity index, A549 vs H1975 cells
Procedure: as §4, §5
IC50 was calculated using Magellan 7.2 software (Tecan, Switzerland) approximating experimental points by four-parameter logistic model with the optimization by Levenberg-Marquardt. […]
as §6

[6] = General cytotoxicity on HepG2 cells; assay type: cell-based; details: human; general cytotoxicity, HepG2 cells, 72 hours, average of several tests
Procedure: (§7) The CC50 values were determined in the test for General cytotoxicity on HepG2 cells (rhepatocellular carcinoma, ATCC® HB-8065™) (Table 16). The cells were subcultured in DMEM medium (PanEco, S420p) supplemented with 10% FBS (Gibco, #16140071) for at least 1 passage after thawing, washed with PBS and passaged in 96-well culture plates (3599, Corning) at a concentration of 2*10^4 cells/100 μL per well, and incubated for 16-18 h. The test substances were titrated in DMSO and transferred to DMEM (PanEco, S420p) medium supplemented with 2% FBS, added to the cells and incubated at 37° C. for 72 hours; viability of the cells was then assessed using Alamar Blue dye (ThermoFisher, # DAL1100). CC50 was determined similarly to IC50.
(§8) The ratio between CC50 for HepG2 cell line and IC50 for H1975 cell line is the therapeutic index (TI): […]

HepG2 cells = assay: General cytotoxicity on HepG2 cells; assay type: cell-based; details: therapeutic index, CC50 HepG2 / IC50 H1975
Procedure: as §7, §8

[7] = average values obtained in several tests, Table 16, read-out: H1975 (DM) IC50
[8] = antiproliferative test, Table 15, read-out: IC50 H1975 (DM)

SMILES | Stability in blood plasma, % [1] [%] | Intrinsic clearance in human liver S9 fractions at 10 µM [2] [µL/min/mg] | IC50 (WT EGFR (Wild-Type EGFR)) [µM] | IC50 [3] [µM] | SI, IC50(WT)/IC50(DM) [3] | IC50 [4] [µM] | IC50 [5, 7] [µM] | IC50 [5, 8] [µM] | SI IC50(A549)/IC50(DM) [5] | CC50 at 72 h [6] [µM] | TI, CC50/IC50 (HepG2 cells)
C=CC(=O)Nc1cc(Nc2nccc(C(=O)c3ccc(N4CCCC4)cc3OC)n2)c(OC)cc1N(C)CCN(C)C [EGFR_3365_123, N-(2-((2-(dimethylamino)ethyl)(methyl)amino)-4-methoxy-5-((4-(2-methoxy-4-(pyrrolidin-1-yl)benzoyl)pyrimidin-2-yl)amino)phenyl)acrylamide] | 87.3 | 9.2 | 0.052 | 0.00265 | 19.58 | 7.19 | 0.00118 | 0.00118 | 6105 | 40 | 33959
C=CC(=O)Nc1cc(Nc2cc(C(=O)c3ccc(OCCOC)cc3)ccn2)c(OC)cc1N(C)CCN(C)C [EGFR_3365_93, N-(2-((2-(dimethylamino)ethyl)(methyl)amino)-4-methoxy-5-((4-(4-(2-methoxyethoxy)benzoyl)pyridin-2-yl)amino)phenyl) acrylamide] | 96.3 | 19.5 | 0.0415 | < 0.001 | >41.48 | 9.15 | 0.104 | 0.104 | 88 | 23.6 | 227
C=CC(=O)Nc1cc(Nc2nccc(C(=O)c3ccc(OCCC)cc3OC)n2)c(OC)cc1N(C)CCN(C)C [EGFR_3365_101, N-(2-((2-(dimethylamino)ethyl)(methyl)amino)-4-methoxy-5-((4-(2-methoxy-4-propoxybenzoyl)pyrimidin-2-yl)amino)phenyl)acrylamide] | 99.2 | 21.3 | 0.0293 | 0.00254 | 11.55 | 8.32 | 0.0129 | 0.0129 | 645 | 16 | 1238

Further lines, with some results ahead:

Stability in blood plasma, % [1] [%] | Intrinsic clearance in human liver S9 fractions at 10 µM [2] [µL/min/mg] | IC50 (WT EGFR (Wild-Type EGFR)) [µM] | IC50 [3] [µM] | SI, IC50(WT)/IC50(DM) [3] | IC50 [4] [µM] | IC50 [5, 7] [µM] | IC50 [5, 8] [µM] | SMILES | SI IC50(A549)/IC50(DM) [5] | CC50 at 72 h [6] [µM] | TI, CC50/IC50 (HepG2 cells)
93.9 | 16 | 0.0514 | 0.00202 | 25.37 | 14.2 | 0.0121 | 0.0121 | C=CC(=O)Nc1cc(Nc2nccc(C(=O)c3ccc(N4CC[C@H](OC)C4)cc3)n2)c(OC)cc1N(C)CCN(C)C [EGFR_3365_114, (S)-N-(2-((2-(dimethylamino)ethyl)(methyl)amino)-4-methoxy-5-((4-(4-(3-methoxypyrrolidin-1-yl)benzoyl)pyrimidin-2-yl)amino)phenyl)acrylamide] | 1175 | 23.8 | 1970
100.0 | 12.8 | 0.0254 | 0.00171 | 14.85 | 21.4 | 0.00435 | 0.00435 | C=CC(=O)Nc1cc(Nc2nccc(C(=O)c3ccc(N4CCC[C@H](O)C4)cc3)n2)c(OC)cc1N(C)CCN(C)C [EGFR_3365_108, (S)-N-(2-((2-(dimethylamino)ethyl)(methyl)amino)-5-((4-(4-(3-hydroxypiperidin-1-yl)benzoyl)pyrimidin-2-yl)amino)-4-methoxyphenyl)acrylamide] | 4925 | 47.9 | 11026
100.0 | – | 0.186 | 0.00233 | 79.88 | 11.2 | 0.0366 | 0.0366 | C=CC(=O)Nc1cc(Nc2nccc(C(=O)c3ccc(N4CCC[C@@H](OC)C4)cc3)n2)c(OC)cc1N(C)CCN(C)C [EGFR_3365_111, (R)-N-(2-((2-(dimethylamino)ethyl)(methyl)amino)-4-methoxy-5-((4-(4-(3-methoxypiperidin-1-yl)benzoyl)pyrimidin-2-yl)amino)phenyl)acrylamide] | 307 | 27.1 | 742
99.3 | – | 0.0842 | 0.0023 | 36.55 | 13.8 | 0.0229 | 0.0229 | C=CC(=O)Nc1cc(Nc2nccc(C(=O)c3ccc(N4CCC(C#N)CC4)cc3)n2)c(OC)cc1N(C)CCN(C)C [EGFR_3365_97, N-(5-((4-(4-(4-cyanopiperidin-1-yl)benzoyl)pyrimidin-2-yl)amino)-2-((2-(dimethylamino)ethyl)(methyl)amino)-4-methoxyphenyl)acrylamide] | 601 | 21.6 | 943
